Experimental data reported in patent US20220194938A1, “NOVEL COMPOUNDS AND PHARMACEUTICAL COMPOSITIONS THEREOF FOR THE TREATMENT OF INFLAMMATORY DISORDERS” (GALAPAGOS NV, priority 2019, published 2022).

Tests used:
[1] = molecular target: T1, human IRAK-4 (Homo sapiens, UniProt Q9NWZ3); assay: Phosphorylation IC50 determination for human IRAK-4 (ADP-Glo kinase assay); conditions: human IRAK-4, RIP140 substrate, Km ATP; read-out: IRAK4 ADPglo biochemical assay IC50
T1 construct: purchased Carna Biosciences 09 145
T1 sequence (Q9NWZ3 1-460): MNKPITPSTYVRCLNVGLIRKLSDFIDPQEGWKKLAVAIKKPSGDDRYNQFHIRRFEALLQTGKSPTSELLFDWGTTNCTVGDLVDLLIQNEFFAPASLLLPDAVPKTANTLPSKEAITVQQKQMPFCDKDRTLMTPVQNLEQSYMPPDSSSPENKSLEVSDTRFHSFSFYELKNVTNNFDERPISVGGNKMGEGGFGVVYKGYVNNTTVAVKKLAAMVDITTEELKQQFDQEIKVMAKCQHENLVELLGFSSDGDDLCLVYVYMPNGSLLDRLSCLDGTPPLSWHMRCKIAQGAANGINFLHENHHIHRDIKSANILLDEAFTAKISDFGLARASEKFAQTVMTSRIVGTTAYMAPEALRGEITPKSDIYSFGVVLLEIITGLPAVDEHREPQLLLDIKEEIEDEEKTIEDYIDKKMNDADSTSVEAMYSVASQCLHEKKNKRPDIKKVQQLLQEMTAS
Procedure: 3.1. Phosphorylation IC50 Determination for Human IRAK-4
The phosphorylation of the substrate RIP140 (SEQ ID1) by IRAK4 at Km ATP was detected with the ADP-Glo Kinase Assay (Promega, Cat #V9103), a luminescent kinase assay which measures the ADP formed from a kinase reaction. (Zegzouti et al. 2009) In a second step the kinase reaction was terminated and all the remaining ATP was depleted. In a final step the ADP was converted into ATP and this newly synthesized ATP was measured by using a luciferase/luciferin reaction with a luminescent reader. The luminescent signal positively correlated with kinase activity, in particular kinase inhibition giving a decrease of the luminescent signal.
For the semi-automated assay, the positive control (100% inhibition) was prepared by diluting 10 mM staurosporine stock mixture (20 μL) in water (3.8 mL) and DMSO (180 μL), thus resulting in a […] staurosporine solution at 1% DMSO (final concentration after further dilution in the kinase reaction).
For the automated assay, no pre-dilution of the 10 mM staurosporine stock was made. 10 mM staurosporine was spotted directly in the assay plate using acoustic dispensing and complemented with DMSO to result in a similar final concentration as mentioned above.
For the semi-automated assay, the negative control (0% inhibition) was prepared by mixing water (3.8 mL) and DMSO (200 μL) resulting in a final concentration of 1% DMSO after further dilution in the kinase reaction. For the automated assay no pre-dilution of DMSO was done. 100% DMSO was spotted directly on the assay plate.
The assay buffer solution was prepared at a concentration corresponding to 5 fold the final (most diluted) assay concentration by mixing a solution of 125 mM TRIS pH 7.5+0.05% Triton X-100+2.5 mM EGTA (5.27 mL) with 1M mgCl2 (72 μL), 1M DTT (57.6 μL), and 200 mM MnCl2 (360 μL).
For example, for the semi-automated method, the enzyme-substrate mixture was prepared by mixing water (3999 μL), assay buffer solution (1380 μL), 1 mM RIP140 (138 μL—SEQ ID1), and 200 ng/mL IRAK 4 (3.45 μL Carna Biosciences, 09 145).
For semi-automated method, the ATP mixture was prepared at a concentration corresponding to 2.5 fold the final (most diluted) assay concentration of the semi-automated method and 1.5 fold the final (most diluted) assay concentration of the automated method. For example, for the semi-automated method, the ATP mixture was prepared by mixing water (4126 μL), assay buffer solution (1380 μL), and 10 mM ATP (13.80 μL).
The assay was performed either in a semi-automated or fully automated manner. The assay volume and the incubation time of the ADP detection were different accordingly the method used.
3.1.3.1. Semi-Automated Assay
The compounds were prepared as a serial dilution of 10 point dose responses with 1/5 dilution steps in 100% DMSO starting from 2 mM highest concentration, diluted 1/20 in water. 1 μL was transferred dry to the assay plates.
On each assay plate 32 wells of each control (positive & negative) were added, followed by 2 μL enzyme-substrate mixture.
The reaction was started by adding 2 μL diluted ATP (final concentration Km ATP) on the assay plates. Plates were centrifuged for a few seconds at 1000 rpm followed by an incubation at r.t. for 120 min.
The reactions were stopped and the unconsumed ATP was depleted by adding 5 μL ADP-glo Reagent (Promega, Cat #V9103) to the reaction. The plates were quickly centrifuged at 1000 rpm and incubated at r.t. for 40 min corresponding to full ATP depletion.
The ADP was converted back to ATP and luciferase and luciferin were introduced to detect ATP by adding 10 μL kinase detection reagent (Promega, Cat #V9103) to the reaction. The plates were centrifuged for a few seconds at 1000 rpm and incubated at r.t. for a further 30 min.
Luminescent read out was performed on an Envision luminescent reader (Perkin Elmer). […]

[2] = tested on: pooled cryopreserved hepatocytes; assay: Metabolic stability in hepatocytes (mouse); format: in vitro ADME; conditions: 1 μM test compound
Procedure: (§1) 4.6. Metabolic Stability in Hepatocytes
(§2) The aim of this assay is to determine the metabolic stability of the compound in hepatocytes (cryopreserved) of different species. Low hepatocyte stability may result in the formation of unwanted metabolites, high clearance, and therefore is not desirable.
(§3) The decrease in parent was assessed by measuring the percentage remaining by LC-MS/MS analysis.
(§4) A 10 mM stock solution of test compound in DMSO was first diluted in DMSO to 3 mM, and then in modified Krebs-Henseleit buffer (Sigma, K3753) to 5 μM. This compound dilution was added to a suspension of pooled cryopreserved hepatocytes (BioreclamationIVT) at 37° C. under gentle shaking.
(§5) Final reaction conditions were: 1 μM of test compound, 0.03% DMSO, 0.5 million viable hepatocytes/mL, and 75 μL incubation volume.
(§6) Testosterone (1 μM) and 7-hydroxycoumarin (1 μM) were used, respectively as phase I and phase II metabolic reaction controls.
(§7) After 0, 10, 20, 45, 90, 120 and 180 min of incubation, the reaction was terminated with 225 μL of MeCN:MeOH (2:1) containing 100 ng/mL of diclofenac as analytical internal standard. Samples were mixed, centrifuged and the supernatant analyzed by LC-MS/MS.
(§8) The instrument responses (ratios of test compound and internal standard peak areas) were referenced to the zero time point samples (considered as 100%) in order to determine the percentage of compound remaining.
(§9) Plots of percentage compound remaining are used to determine the intrinsic clearance in the hepatocyte incubations using the following equations:
(§10) Scaled Clint[L/h/kg]=Clint[μL/min/10^6 cells]*#(10^6) cells/g liver*60*(1/10^6) Scaled Clint unbound [L/h/kg]=Clint [L/h/kg]/Fu,inc where: fu,inc equals hepatocyte binding, derived from microsomal binding (fu,mic) by following equation: […]

[3] = tested on: pooled cryopreserved hepatocytes; assay: Metabolic stability in hepatocytes (human); format: in vitro ADME; conditions: 1 μM test compound
Procedure: as §1, §2, §3, §4, §5, §6, §7, §8, §9, §10

Compound | IC50 [1] [nM] | Mouse (Perc. remaining at 90 min) [2] [%] | Human (Perc. remaining at 90 min) [3] [%]
COc1cc2nc(CCC(C)(C)O)cn2cc1NC(=O)c1cncc(C)n1 [Compound 16, N-[2-(3-hydroxy-3-methyl-butyl)-7-methoxy-imidazo[1,2-a]pyridin-6-yl]-6-methyl-pyrazine-2-carboxamide] | 10 to 50 | 74.55 | 29.2
CC(C)(O)CCc1cn2cc(NC(=O)c3cccc(C(F)(F)F)n3)c(C(=O)N3CCC3)cc2n1 [Compound 28, N-[7-(azetidine-1-carbonyl)-2-(3-hydroxy-3-methyl-butyl)imidazo[1,2-a]pyridin-6-yl]-6-(trifluoromethyl)pyridine-2-carboxamide] | 10 to 50 | 96.25 | 93.5
COc1cc2nc(CCC(C)(C)O)cn2cc1NC(=O)c1ccc(F)c(C)n1 [Compound 15, 5-fluoro-N-[2-(3-hydroxy-3-methyl-butyl)-7-methoxy-imidazo[1,2-a]pyridin-6-yl]-6-methyl-pyridine-2-carboxamide] | 0.1 to 5 | 60.05 | 48.5
COc1cc2nc(CCC(C)(C)O)cn2cc1NC(=O)c1cccc(CO)n1 [Compound 21, 6-(hydroxymethyl)-N-[2-(3-hydroxy-3-methyl-butyl)-7-methoxy-imidazo[1,2-a]pyridin-6-yl]pyridine-2-carboxamide] | 0.1 to 5 | 34.9 | 71.95
CN(C)C(=O)c1cc2nc(CCC(C)(C)O)cn2cc1NC(=O)c1cccc(C(F)(F)F)n1 [Compound 27, 2-(3-hydroxy-3-methyl-butyl)-N,N-dimethyl-6-[[6-(trifluoromethyl)pyridine-2-carbonyl]amino]imidazo[1,2-a]pyridine-7-carboxamide] | 10 to 50 | 108.1 | 95.6
COc1cc2nc(CCC(C)(C)O)cn2cc1NC(=O)c1cccn(C(C)C)c1=O [Compound 22, N-[2-(3-hydroxy-3-methyl-butyl)-7-methoxy-imidazo[1,2-a]pyridin-6-yl]-1-isopropyl-2-oxo-pyridine-3-carboxamide] | 10 to 50 | 74.1 | 99.75
